Test system: human blood (platelet/fibrin clot)
Assay: Thrombelastography (TEG) clot kinetics in whole blood
Type: cell-based
Details: Table 4, mean ± SD, n=4, control = normal blood, 'Heparin +' lines in presence of heparin
Source text: Thrombelastography techniques, which are commonly used in the clinical laboratory for monitoring coagulation functions, were utilized. Siliconized Vacutainer tubes (Becton Dickinson, Rutherford, N.J.) were used to collect whole blood. To maintain a ratio of citrate to whole blood of 1:9 (v/v), the tubes contained 3.2% trisodium citrate. Blood samples were placed on a slow speed rocker until TEG analysis.
Whole Blood Coagulation Analyzer, Model 5000 Thrombelastograph, Hemoscope Corporation, Skokie, Ill., was used. TEG is based on the measurement of the physical viscoelastic characteristics of blood clots. An oscillating plastic cylindrical cuvette (“cup”) and a coaxially suspended stationary piston (“pin”) with a […] clearance between the surfaces are used to monitor clot formation at 37° C. Every 4.5 seconds, with a 1-second mid cycle stationary period, the cup oscillates in either direction, resulting in a frequency of 0.1 Hz. […]
Different hydrogel polycatioinic matrix micro-composites were evaluated. […]
A standard global coagulation assay, namely Thrombelastography, uses a total of 5 ml blood from human volunteers. Additionally, the efficiency of the optimal hydrogel compositions that have the shortest Time to Clotting (R) and the strongest clot strength (MA) were evaluated in stopping severe bleeding in a hemorrhage simulation model system. […]

`NC[C@H]1CC[C@H](C(=O)O)CC1` [tranexamic acid (TXA), tranexamic acid] was tested, and the “MA-Clot Strength” value was 57 ± 4 mm and the “R - Time to Clot initiation” value was 9.0 ± 4 min.

From patent publication US9950091B2, “Composition and method for stopping hemorrhage, infection, and accelerating healing in various types of wound or burns” (priority 2015, dated 2018)
